The results in this text go back to article PMC9576617, “A new LKB1 activator, piericidin analogue S14, retards renal fibrosis through promoting autophagy and mitochondrial homeostasis in renal tubular epithelial cells” (Theranostics, 2022).

The target in the experiment is T1, LKB1 (Liver kinase B1, STK11) (Homo sapiens, UniProt Q15831).
T1 construct: Recombinant Human LKB1 (CSB-EP624036HU)
T1 sequence (Q15831 1-430): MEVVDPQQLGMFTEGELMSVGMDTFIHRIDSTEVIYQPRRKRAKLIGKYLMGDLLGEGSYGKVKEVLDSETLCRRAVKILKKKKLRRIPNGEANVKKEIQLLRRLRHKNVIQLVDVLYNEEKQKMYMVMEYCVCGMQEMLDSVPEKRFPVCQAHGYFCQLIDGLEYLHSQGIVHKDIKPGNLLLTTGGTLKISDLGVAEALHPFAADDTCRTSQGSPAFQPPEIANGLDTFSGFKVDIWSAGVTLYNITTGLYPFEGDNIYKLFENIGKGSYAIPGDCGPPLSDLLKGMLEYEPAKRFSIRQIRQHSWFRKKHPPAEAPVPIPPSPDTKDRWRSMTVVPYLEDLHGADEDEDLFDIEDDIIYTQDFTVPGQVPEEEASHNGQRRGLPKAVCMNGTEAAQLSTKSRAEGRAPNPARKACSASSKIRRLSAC
In words: SPR imaging (PlexArray HT A100), LKB1 immobilized on a 3D Dextran chip, […] fit. It counts as binding.

Usually Kd stands for the equilibrium constant for the complex coming apart. Regarding `COc1nc(C/C=C(\C)C/C=C/C(C)=C/[C@@H](C)[C@@H](O[C@@H]2O[C@H](CO)[C@@H](O)[C@H](O)[C@H]2O)/C(C)=C/CO)c(C)c(O)c1OC` [PA-S14, piericidin analogue S14], binding was characterised by a dissociation constant (Kd) of 120 nM.
